Where two headings read alike, the source gives them in different places.
Molecular target: T1, USP25 (USP25-His6, Boston Biochem E-546) (Homo sapiens, UniProt Q9UHP3)
T1 construct: His6 (C); purchased Boston Biochem E-546
T1 sequence (Q9UHP3 1-1055): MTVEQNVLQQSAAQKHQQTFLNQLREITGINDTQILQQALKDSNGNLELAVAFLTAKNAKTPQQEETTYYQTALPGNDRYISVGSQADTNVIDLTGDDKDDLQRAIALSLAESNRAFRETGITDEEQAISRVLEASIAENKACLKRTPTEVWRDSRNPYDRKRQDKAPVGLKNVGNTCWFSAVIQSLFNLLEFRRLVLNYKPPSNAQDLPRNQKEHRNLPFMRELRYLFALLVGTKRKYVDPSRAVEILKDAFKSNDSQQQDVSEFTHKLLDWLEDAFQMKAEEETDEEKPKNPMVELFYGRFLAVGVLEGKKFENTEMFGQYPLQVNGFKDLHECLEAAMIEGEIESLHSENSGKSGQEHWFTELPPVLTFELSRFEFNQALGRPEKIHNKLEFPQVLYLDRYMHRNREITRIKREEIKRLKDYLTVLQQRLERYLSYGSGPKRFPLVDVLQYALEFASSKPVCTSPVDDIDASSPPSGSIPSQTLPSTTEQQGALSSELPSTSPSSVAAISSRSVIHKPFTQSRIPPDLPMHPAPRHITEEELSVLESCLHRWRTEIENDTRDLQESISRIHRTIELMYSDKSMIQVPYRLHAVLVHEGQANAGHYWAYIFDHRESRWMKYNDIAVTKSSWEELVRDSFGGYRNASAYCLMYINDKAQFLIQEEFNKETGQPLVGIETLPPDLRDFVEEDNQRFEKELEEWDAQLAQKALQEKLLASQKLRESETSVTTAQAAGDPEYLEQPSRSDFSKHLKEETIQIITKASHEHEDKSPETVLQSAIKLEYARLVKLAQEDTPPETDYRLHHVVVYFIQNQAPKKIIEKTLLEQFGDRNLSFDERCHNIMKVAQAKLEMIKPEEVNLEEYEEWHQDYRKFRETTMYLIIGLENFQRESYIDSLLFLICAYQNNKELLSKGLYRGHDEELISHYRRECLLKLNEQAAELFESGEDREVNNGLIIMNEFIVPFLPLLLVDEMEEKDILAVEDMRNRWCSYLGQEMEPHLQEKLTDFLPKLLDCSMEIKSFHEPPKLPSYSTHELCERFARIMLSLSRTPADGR
Experiment: Ubiquitin-Rhodamine 110 Assay for USP25 Activity, Example A-3
Assay type: biochemical
Conditions: Ubiquitin-Rhodamine 110 assay, Example A-3
In short: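 USP25-His6 ([…] final as stated) preincubated 30 min with compound (10-point, 25 μM to 1.3 nM), then Ub-Rh110 at 25 nM (<<Km) added in pH 8.0 Tris buffer with BME, BGG and Triton X-100. Reaction stopped after 45 min at room temperature with 10 mM citric acid; fluorescence read at 485/535 nm.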

[1] = biochemical IC50 range, read-out: USP25 A-3

| Structure (SMILES) | IC50 (read-out: USP25 A-3 IC50 range) | further results |
| --- | --- | --- |
| Cc1cnc2c(N)c(C(=O)N[C@H]3CCc4cc(N5CCNCC5)c(F)cc4C3)sc2n1 (single isomer, unassigned) [Example 21-12] | 200 to 2000 nM | – |
| Cc1ccc2c(N)c(C(=O)N[C@H]3CCc4c(F)c(N5CC6CCC(C5)N6)cc(F)c4C3)sc2n1 (single isomer, unassigned) [Example 22-5] | 1 to 50 nM | – |
| [2H]C1([2H])c2c(F)cc(N3CCNCC3)cc2OC[C@@H]1NC(=O)c1sc2nc(C)ccc2c1N (single isomer, unassigned) [Example 33-1] | 200 to 2000 nM | – |
| [2H]C1([2H])c2c(F)cc(N3CCNCC3)cc2OC[C@H]1NC(=O)c1sc2nc(C)ccc2c1N (single isomer, unassigned) [Example 33-2] | > 2000 nM | – |
| CCn1ccc2cc(C(=O)N[C@H]3CCc4nc(N5C[C@@H](COC)[C@@H](N)C5)ccc4C3)cnc21 (single isomer, unassigned) [Example 400] | > 2000 nM | – |
| CCn1ccc2cc(C(=O)N[C@H]3CCc4nc(N5C[C@H](COC)[C@H](N)C5)ccc4C3)cnc21 (single isomer, unassigned) [Example 401] | > 2000 nM | – |
| Cc1ccc2c(N)c(C(=O)N[C@H]3COc4cc(N5C[C@H](CF)[C@H](N)C5)ccc4C3)sc2n1 (single isomer, unassigned) [Example 424] | 200 to 2000 nM | – |
| Cc1ccc2c(N)c(C(=O)N[C@H]3COc4cc(N5C[C@H](N)[C@@]6(CCOC6)C5)ccc4C3)sc2n1 (single isomer, unassigned) [Example 439] | 200 to 2000 nM | – |
| Cc1ccc2c(N)c(C(=O)N[C@H]3CCc4c(F)c(N5CC6CCC(C5)N6)cc(F)c4C3)sc2n1 (single isomer, unassigned) [Example 603] | – | IC50 [1]: 1 to 50 nM |
| COC1CN(c2ccc3c(c2)CC[C@H](NC(=O)c2sc4nc(C)cnc4c2N)C3)CC1N (stereo in doubt) [Example 130, 7-amino-N-[(2S)-6-[(3S,4S)-3-amino-4-methoxypyrrolidin-1-yl]-1,2,3,4-tetrahydronaphthalen-2-yl]-3-methylthieno[2,3-b]pyrazine-6-carboxamide] | – | IC50 [1]: 200 to 2000 nM |
| Cc1ccc2c(N)c(C(=O)N[C@H]3COc4cc(N5C[C@H]6CC[C@@H]5CN6)ncc4C3)sc2n1 [Example 76, N-((R)-7-((1R,4R)-2,5-diazabicyclo[2.2.2]octan-2-yl)-3,4-dihydro-2H-pyrano[3,2-c]pyridin-3-yl)-3-amino-6-methylthieno[2,3-b]pyridine-2-carboxamide] | 50 to 200 nM | – |
| CO[C@H]1CN(c2ccc3c(c2)OC[C@H](NC(=O)c2sc4nc(C)cnc4c2N)C3)C[C@@H]1N [Example 117] | 200 to 2000 nM | – |
| CO[C@H]1CN(c2ccc3c(c2)OC[C@H](NC(=O)c2sc4nc(C)sc4c2N)C3)CC1N (stereo partly drawn) [Example 118, 6-amino-N-[(3R)-7-[(3,4S)-3-amino-4-methoxypyrrolidin-1-yl]-3,4-dihydro-2H-1-benzopyran-3-yl]-2-methylthieno[2,3-d][1,3]thiazole-5-carboxamide] | 200 to 2000 nM | – |
| CO[C@H]1CN(c2ccc3c(c2)CC[C@H](NC(=O)c2sc4nc(C)ccc4c2N)C3)C[C@H]1N [Example 144, 3-amino-N-[(2S)-6-[(3R,4S)-3-amino-4-methoxypyrrolidin-1-yl]-1,2,3,4-tetrahydronaphthalen-2-yl]-6-methylthieno[2,3-b]pyridine-2-carboxamide] | – | IC50 [1]: 200 to 2000 nM |
| CO[C@@H]1CN(c2ccc3c(c2)OC[C@H](NC(=O)c2sc4nc(C)cnc4c2N)C3)C[C@@H]1N [Example 147, 7-amino-N-[(3R)-7-[(3S,4R)-3-amino-4-methoxypyrrolidin-1-yl]-3,4-dihydro-2H-1-benzopyran-3-yl]-3-methylthieno[2,3-b]pyrazine-6-carboxamide] | – | IC50 [1]: 200 to 2000 nM |
| N#Cc1c(N2CC3CCC(C2)N3)cc(F)c2c1OC[C@H](NC(=O)c1cnc3c(c1)[C@@H]1CC1CN3)C2 (stereo partly drawn) [Example 228, (6aS,7aR)-N-[(3R)-8-cyano-7-(3,8-diazabicyclo[3.2.1]octan-3-yl}-5-fluoro-3,4-dihydro-2H-1-benzopyran-3-yl]-5H,6H,6aH,7H,7aH-cyclopropa[c]1,8-naphthyridine-2-carboxamide] | – | IC50 (IC50 ranges, read-out: USP25 A-3 IC50): 200 to 2000 nM |
| COC[C@@]1(C)CN(c2ccc3c(n2)CC[C@H](NC(=O)c2sc4nc(C)ccc4c2N)C3)C[C@H]1N [Example 343, 3-amino-N-[(6S)-2-[(3S,4S)-4-amino-3-(methoxymethyl)-3-methylpyrrolidin-1-yl]-5,6,7,8-tetrahydroquinolin-6-yl]-6-methylthieno[2,3-b]pyridine-2-carboxamide] | 200 to 2000 nM | – |
| Cc1ccc2c(N)c(C(=O)N[C@H]3CCc4nc(N5C[C@H](N)[C@@]6(CCOC6)C5)ccc4C3)sc2n1 [Example 437, 3-amino-N-[(6S)-2-[(5R,9R)-9-amino-2-oxa-7-azaspiro[4.4]nonan-7-yl]-5,6,7,8-tetrahydroquinolin-6-yl]-6-methylthieno[2,3-b]pyridine-2-carboxamide] | > 2000 nM | – |
| Cc1ccc2c(N)c(C(=O)N[C@H]3CCc4nc(N5C[C@@H](N)[C@]6(CCOC6)C5)ccc4C3)sc2n1 [Example 438, 3-amino-N-[(6S)-2-[(5S, 9S)-9-amino-2-oxa-7-azaspiro[4.4]nonan-7-yl]-5,6,7,8-tetrahydroquinolin-6-yl]-6-methylthieno[2,3-b]pyridine-2-carboxamide] | > 2000 nM | – |
| CN[C@H]1CN(c2ccc3c(n2)CC[C@H](NC(=O)c2sc4nc(C)ccc4c2N)C3)C[C@H]1CF [Example 441, 3-amino-N-[(6S)-2-[(3R,4R)-3-(fluoromethyl)-4-(methylamino)pyrrolidin-1-yl]-5,6,7,8-tetrahydroquinolin-6-yl]-6-methylthieno[2,3-b]pyridine-2-carboxamide] | > 2000 nM | – |
| CN[C@@H]1CN(c2ccc3c(n2)CC[C@H](NC(=O)c2sc4nc(C)ccc4c2N)C3)C[C@@H]1CF [Example 442, 3-amino-N-[(6S)-2-[(3S,4S)-3-(fluoromethyl)-4-(methylamino)pyrrolidin-1-yl]-5,6,7,8-tetrahydroquinolin-6-yl]-6-methylthieno[2,3-b]pyridine-2-carboxamide] | > 2000 nM | – |
| Cc1ccc2c(N)c(C(=O)N[C@@H]3CCc4nc(N5C[C@@H](CF)[C@@H](N)C5)ncc4C3)sc2n1 [Example 445, 3-amino-N-[(6R)-2-[(3R,4R)-3-amino-4-(fluoromethyl)pyrrolidin-1-yl]-5,6,7,8-tetrahydroquinazolin-6-yl]-6-methylthieno[2,3-b]pyridine-2-carboxamide] | > 2000 nM | – |
| Cc1ccc2c(N)c(C(=O)N[C@@H]3CCc4nc(N5C[C@H](CF)[C@H](N)C5)ncc4C3)sc2n1 [Example 446, 3-amino-N-[(6R)-2-[(3S,4S)-3-amino-4-(fluoromethyl)pyrrolidin-1-yl]-5,6,7,8-tetrahydroquinazolin-6-yl]-6-methylthieno[2,3-b]pyridine-2-carboxamide] | > 2000 nM | – |
| Cc1ccc2c(N)c(C(=O)N[C@H]3COc4cc(N5C[C@H](N)[C@]6(CCOC6)C5)ccc4C3)sc2n1 [Example 656, 3-amino-N-[(3R)-7-[(5S,9R)-9-amino-2-oxa-7-azaspiro[4.4]nonan-7-yl]-3,4-dihydro-2H-1-benzopyran-3-yl]-6-methylthieno[2,3-b]pyridine-2-carboxamide] | – | IC50 [1]: 200 to 2000 nM |
| Cc1ccc2c(N)c(C(=O)N[C@H]3CCc4cc(N5C[C@H](CF)[C@H](N)C5)ccc4C3)sc2n1 [Example 657, 3-amino-N-[(2S)-6-[(3S,4S)-3-amino-4-(fluoromethyl)pyrrolidin-1-yl]-1,2,3,4-tetrahydronaphthalen-2-yl]-6-methylthieno[2,3-b]pyridine-2-carboxamide] | – | IC50 [1]: 200 to 2000 nM |
| Cc1ccc2c(N)c(C(=O)N[C@H]3COc4cc(N5C[C@H](N)[C@](C)(CF)C5)ccc4C3)sc2n1 [Example 658, 3-amino-N-[(3R)-7-[(3R,4R)-4-amino-3-(fluoromethyl)-3-methylpyrrolidin-1-yl]-3,4-dihydro-2H-1-benzopyran-3-yl]-6-methylthieno[2,3-b]pyridine-2-carboxamide] | – | IC50 [1]: 50 to 200 nM |
| Cc1ccc2c(N)c(C(=O)N[C@H]3COc4cc(N5C[C@H](N)[C@@](C)(CF)C5)ccc4C3)sc2n1 [Example 659, 3-amino-N-[(3R)-7-[(3S,4R)-4-amino-3-(fluoromethyl)-3-methylpyrrolidin-1-yl]-3,4-dihydro-2H-1-benzopyran-3-yl]-6-methylthieno[2,3-b]pyridine-2-carboxamide] | – | IC50 [1]: 50 to 200 nM |

Reference: patent publication US12162888B2, “Carboxamides as ubiquitin-specific protease inhibitors” (Valo Early Discovery, Inc., priority 2018, dated 2024)
